Source: US20250388605A1, “HETEROBIFUNCTIONAL COMPOUNDS AND METHODS OF TREATING DISEASE” (Halda Therapeutics OpCo, Inc., priority 2022, published 2025)

Assays:
VCaP cells = assay: Cellular growth inhibition assay for VCaP cells, CellTiter-Glo; type: cell-based, human; conditions: 72 hours
Summary of the method: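 GI50 values come from four-parameter curve fits of luminescence data normalized to a zero baseline. Compound, in medium with 0.5% DMSO, was added one day after plating and left for 72 h before CellTiter-Glo 2.0 addition.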

[1] = system: T-Rex 293 cell line SC3 cells having increased expression of androgen receptor protein due to exposure to doxycycline; assay: Cellular growth inhibition, T-Rex 293 SC3 cells with doxycycline (increased androgen receptor expression), CellTiter-Glo; type: cell-based; conditions: T-Rex 293 SC3 cells with 10 ng/mL doxycycline (increased androgen receptor expression), 72 hours, CellTiter-Glo 2.0
Summary of the method: (§1)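 Growth inhibition is measured in an inducible AR-expressing T-Rex 293 clone, SC3, cultured with or without 10 ng/mL doxycycline in hormone-depleted medium. Test compounds are applied for 72 hours. GI50 values derive from CellTiter-Glo 2.0 signal fitted by four-parameter regression.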

[2] = system: T-Rex 293 cell line SC3 cells lacking increased expression of androgen receptor protein; assay: Cellular growth inhibition, T-Rex 293 SC3 cells without doxycycline (no increased androgen receptor expression), CellTiter-Glo; type: cell-based; conditions: T-Rex 293 SC3 cells not exposed to doxycycline (no increased androgen receptor expression), 72 hours
Summary of the method: as §1

BRD4-BD2 = biological target: T1, BRD4-BD2 (Homo sapiens, UniProt O60885); assay: Binding affinity to BRD4-BD2 (bromoKdELECT assay); conditions: 11-point 3-fold dilution series
T1 construct: made in house; host or cells: T7 phage grown in an E. coli host derived from the BL21 strain

| GI50 (VCaP cells; Homo sapiens) [µM] | Kd (BRD4-BD2) [µM] | GI50 (VCaP cells) [µM] | SMILES | GI50 [1] [µM] | GI50 [2] [µM] |
| --- | --- | --- | --- | --- | --- |
| < 0.5 | 0.05 to 0.5 |  | CN(c1ccc(Oc2cccc(N3CC(N4CCN(c5ncc(C(=O)N[C@H]6C(C)(C)[C@H](Oc7ccc(C#N)c(Cl)c7)C6(C)C)cn5)CC4)C3)c2)c(-c2cn(C)c(=O)c3[nH]ccc23)c1)S(=O)(=O)C1CC1 [Compound I-88, N-((1r, 3r)-3-(3-chloro-4-cyanophenoxy)-2,2,4,4-tetramethylcyclobutyl)-2-(4-(1-(3-(2-(6-methyl-7-oxo-6,7-dihydro-1H-pyrrolo[2,3-c]pyridin-4-yl)-4-(N-methylcyclopropanesulfonamido)phenoxy)phenyl)azetidin-3-yl)piperazin-1-yl)pyrimidine-5-carboxamide] | < 0.5 | > 3 |
| < 0.5 | > 2.5 |  | Cn1cc(-c2ccccc2Oc2cccc(N3CC(N4CCN(c5ncc(C(=O)N[C@H]6C(C)(C)[C@H](Oc7ccc(C#N)c(Cl)c7)C6(C)C)cn5)CC4)C3)c2)c2cc[nH]c2c1=O [Compound I-90, N-((1r, 3r)-3-(3-chloro-4-cyanophenoxy)-2,2,4,4-tetramethylcyclobutyl)-2-(4-(1-(3-(2-(6-methyl-7-oxo-6,7-dihydro-1H-pyrrolo[2,3-c]pyridin-4-yl)phenoxy)phenyl)azetidin-3-yl)piperazin-1-yl)pyrimidine-5-carboxamide] | < 0.5 | > 3 |
| < 0.5 | < 0.05 |  | CN(c1ccc(Oc2cccc(N3CC(N4CCN(c5ncc(C(=O)N[C@H]6C(C)(C)[C@H](Oc7ccc(C#N)c(Cl)c7)C6(C)C)cn5)CC4)C3)c2F)c(-c2cn(C)c(=O)c3[nH]ccc23)c1)S(=O)(=O)C1CC1 [Compound I-91] | < 0.5 | > 3 |
| < 0.5 | 0.05 to 0.5 |  | Cn1cc(-c2cc(C(C)(C)O)ccc2Oc2cccc(N3CC(N4CCN(c5ncc(C(=O)N[C@H]6C(C)(C)[C@H](Oc7ccc(C#N)c(Cl)c7)C6(C)C)cn5)CC4)C3)c2F)c2cc[nH]c2c1=O [Compound I-92, N-((1r, 3r)-3-(3-chloro-4-cyanophenoxy)-2,2,4,4-tetramethylcyclobutyl)-2-(4-(1-(2-fluoro-3-(4-(2-hydroxypropan-2-yl)-2-(6-methyl-7-oxo-6,7-dihydro-1H-pyrrolo[2,3-c]pyridin-4-yl)phenoxy)phenyl)azetidin-3-yl)piperazin-1-yl)pyrimidine-5-carboxamide] | < 0.5 | < 0.5 |
| > 3 | 0.05 to 0.5 |  | Cn1cc(-c2ccccc2Oc2cccc(N3CC(N4CCN(c5ncc(C(=O)N[C@H]6C(C)(C)[C@H](Oc7ccc(C#N)c(Cl)c7)C6(C)C)cn5)CC4)C3)c2F)c2cc[nH]c2c1=O [Compound I-94] | < 0.5 | > 3 |
| < 0.5 | 0.05 to 0.5 |  | Cn1cc(-c2cc(C(C)(C)O)ccc2Oc2cccc(OCCN3CCN(c4ncc(C(=O)N[C@H]5C(C)(C)[C@H](Oc6ccc(C#N)c(Cl)c6)C5(C)C)cn4)CC3)c2)c2cc[nH]c2c1=O [Compound I-96] | < 0.5 | < 0.5 |
| < 0.5 | > 2.5 |  | Cn1cc(-c2ccccc2Oc2cccc(OCCN3CCN(c4ncc(C(=O)N[C@H]5C(C)(C)[C@H](Oc6ccc(C#N)c(Cl)c6)C5(C)C)cn4)CC3)c2)c2cc[nH]c2c1=O [Compound I-98] | < 0.5 | 0.5 to 1.5 |
| < 0.5 | < 0.05 |  | Cn1cc(-c2cc(C(C)(C)O)ccc2Oc2cccc(OCCN3CCN(c4ncc(C(=O)N[C@H]5C(C)(C)[C@H](Oc6ccc(C#N)c(Cl)c6)C5(C)C)cn4)CC3)c2F)c2cc[nH]c2c1=O [Compound I-99] | < 0.5 | < 0.5 |
| < 0.5 | < 0.05 |  | Cn1cc(-c2cc(C(C)(C)O)ccc2Oc2cccc(N3CC(N4CCN(c5ncc(C(=O)N[C@H]6C(C)(C)[C@H](Oc7ccc(C#N)c(Cl)c7)C6(C)C)cn5)CC4)C3)c2)c2cc[nH]c2c1=O [Compound I-105] | < 0.5 | < 0.5 |
| > 3 | 0.05 to 0.5 |  | CC(C)c1ccc(Oc2cccc(OCCN3CCN(c4ncc(C(=O)NC5C(C)(C)C(Oc6ccc(C#N)c(Cl)c6)C5(C)C)cn4)CC3)c2)c(-c2cn(C)c(=O)c3[nH]ccc23)c1 (stereo not shown) [Compound I-107, N-[3-(3-chloro-4-cyano-phenoxy)-2,2,4,4-tetramethyl-cyclobutyl]-2-[4-[2-[3-[4-isopropyl-2-(6-methyl-7-oxo-1H-pyrrolo[2,3-c]pyridin-4-yl)phenoxy]phenoxy]ethyl]piperazin-1-yl]pyrimidine-5-carboxamide] | < 0.5 | > 3 |
| < 0.5 | < 0.05 |  | Cn1cc(-c2cc(C(C)(C)O)ccc2Oc2cccc(CCCN3CCN(c4ncc(C(=O)N[C@H]5C(C)(C)[C@H](Oc6ccc(C#N)c(Cl)c6)C5(C)C)cn4)CC3)c2)c2cc[nH]c2c1=O [Compound I-110] | < 0.5 | < 0.5 |
| < 0.5 | > 2.5 |  | CCS(=O)(=O)Nc1ccc(Oc2cccc(OCCOC3CCN(c4ncc(C(=O)N[C@H]5C(C)(C)[C@H](Oc6ccc(C#N)c(Cl)c6)C5(C)C)cn4)CC3)c2)c(-c2cn(C)c(=O)c3c2ccn3C)c1 [Compound I-121] | < 0.5 | > 3 |
| < 0.5 | < 0.05 |  | CCS(=O)(=O)Nc1ccc(Oc2cccc(N3CCN(C4CN(c5ncc(C(=O)N[C@H]6C(C)(C)[C@H](Oc7ccc(C#N)c(Cl)c7)C6(C)C)cn5)C4)CC3)c2)c(-c2cn(C)c(=O)c3[nH]ccc23)c1 [Compound I-126] | < 0.5 | > 3 |
| > 3 | > 2.5 |  | Cn1cc(-c2ccccc2Oc2cccc(OCCOC3CCN(c4ncc(C(=O)N[C@H]5C(C)(C)[C@H](Oc6ccc(C#N)c(Cl)c6)C5(C)C)cn4)CC3)c2)c2ccn(C)c2c1=O [Compound I-137] | < 0.5 | < 0.5 |
|  | 0.5 to 2.5 | < 0.5 | CCS(=O)(=O)Nc1ccc(Oc2ccc(OCC3CCN(c4ncc(C(=O)N[C@H]5C(C)(C)[C@H](Oc6ccc(C#N)c(Cl)c6)C5(C)C)cn4)CC3)cc2)c(-c2cn(C)c(=O)c3[nH]ccc23)c1 [Compound I-138] | < 0.5 | < 0.5 |
| < 0.5 | 0.5 to 2.5 |  | Cn1cc(-c2cc(C(C)(C)O)ccc2Oc2cccc(OCCC3CCN(c4ncc(C(=O)N[C@H]5C(C)(C)[C@H](Oc6ccc(C#N)c(Cl)c6)C5(C)C)cn4)CC3)c2F)c2cc[nH]c2c1=O [Compound I-142] | < 0.5 | 1.5 to 3 |
| < 0.5 | < 0.05 |  | Cn1cc(-c2cc(C(C)(C)O)ccc2Oc2cccc(CCCN3CCN(c4ncc(C(=O)N[C@H]5C(C)(C)[C@H](Oc6ccc(C#N)c(Cl)c6)C5(C)C)cn4)CC3)c2F)c2cc[nH]c2c1=O [Compound I-143] | < 0.5 | < 0.5 |
|  | < 0.05 | < 0.5 | Cn1cc(-c2cc(C(C)(C)O)ccc2Oc2cccc(CCOC3CCN(c4ncc(C(=O)N[C@H]5C(C)(C)[C@H](Oc6ccc(C#N)c(Cl)c6)C5(C)C)cn4)CC3)c2F)c2cc[nH]c2c1=O [Compound I-147] | < 0.5 | < 0.5 |
|  | 0.05 to 0.5 | > 3 | Cn1cc(-c2cc(C(C)(C)O)ccc2Oc2cccc(OCCC3CCN(c4ncc(C(=O)N[C@H]5C(C)(C)[C@H](Oc6ccc(C#N)c(Cl)c6)C5(C)C)cn4)CC3)c2)c2cc[nH]c2c1=O [Compound I-156] | < 0.5 | > 3 |
| < 0.5 | < 0.05 |  | CCS(=O)(=O)c1ccc(Oc2cccc(OCCOC3CCN(c4ccc(C(=O)N[C@H]5C(C)(C)[C@H](Oc6ccc(C#N)c(Cl)c6)C5(C)C)cn4)CC3)c2F)c(-c2cn(C)c(=O)c3[nH]ccc23)c1 [Compound I-185] | < 0.5 | < 0.5 |
|  | 0.05 to 0.5 | < 0.5 | Cn1cc(-c2cc(C(C)(C)O)ccc2Oc2cccc(N3CC(OC4CCN(c5ncc(C(=O)N[C@H]6C(C)(C)[C@H](Oc7ccc(C#N)c(Cl)c7)C6(C)C)cn5)CC4)C3)c2F)c2cc[nH]c2c1=O [Compound I-190] | < 0.5 | 0.5 to 1.5 |
| 0.5 to 1.5 | 0.05 to 0.5 |  | Cc1ccc(CCCOC2CCN(c3ncc(C(=O)N[C@H]4C(C)(C)[C@H](Oc5ccc(C#N)c(Cl)c5)C4(C)C)cn3)CC2)cc1Oc1ccc(C(C)(C)O)cc1-c1cn(C)c(=O)c2[nH]ccc12 [Compound I-192] | < 0.5 | 0.5 to 1.5 |
|  | < 0.05 | < 0.5 | Cn1cc(-c2cc(C(C)(C)O)ccc2Oc2cccc(CCOC3CCN(c4ncc(C(=O)N[C@H]5C(C)(C)[C@H](Oc6ccc(C#N)c(Cl)c6)C5(C)C)cn4)CC3)c2)c2cc[nH]c2c1=O [Compound I-193] | < 0.5 | < 0.5 |
| 0.5 to 1.5 | < 0.05 |  | Cn1cc(-c2cc(C(C)(C)O)ccc2Oc2ccc(CCOC3CCN(c4ncc(C(=O)N[C@H]5C(C)(C)[C@H](Oc6ccc(C#N)c(Cl)c6)C5(C)C)cn4)CC3)cc2)c2cc[nH]c2c1=O [Compound I-194] | < 0.5 | 1.5 to 3 |
| > 3 | > 2.5 |  | Cc1ccc(CCCOC2CCN(c3ncc(C(=O)N[C@H]4C(C)(C)[C@H](Oc5ccc(C#N)c(Cl)c5)C4(C)C)cn3)CC2)c(C)c1Oc1ccc(C(C)(C)O)cc1-c1cn(C)c(=O)c2[nH]ccc12 [Compound I-195] | < 0.5 | > 3 |
